In US11858922B2, “Sulfonylureas and related compounds and use of same” (The University of Queensland, priority 2016, dated 2024):

biological target: not listed separately; test: Isothermal titration calorimetry (ITC), copper complexation of MCC950; assay type: binding; conditions: ITC, CuCl2 titrated into 0.4 mM MCC950Na in water, 25° C.
Method: Complex formation between the sodium form of MCC950 and copper chloride was tested and detected by using isothermal titration calorimetry (ITC). MCC950 (also known as CRID3) is a sulphonylurea having the formula: […]
An autoITC 200 (GE life sciences) was used to measure the change in heat induced by Cu^2+-MCC950 interactions and data analysed using the MicroCal Origin version 7.0 software package adapted for auto-ITC data analysis.
Copper chloride (5 or 2.5 mM of CuCl2) dissolved in water (miliQ water; Elga) was titrated into a cell containing 0.4 mM MCC950Na also dissolved in water. The titration consisted of 19×2 μL injections at 25° C. As a control EDTA was used, in free acid form or as a sodium di-salt, at a concentration of 0.4 mM. Experiments were replicated three times and results were averaged. Thermograms and binding isotherms were used to determine the enthalpy (ΔH), binding constants (K), stoichiometry (N), and entropy (TΔS) using a single-site binding model. The change in standard Gibbs free energy (ΔG) was calculated using the Gibbs-Helmholz thermodynamic equation: ΔG=−RTInK, where R is the ideal gas constant (1.985 cal mol^−1K^−1) and T is the temperature (298 K).

Question: For `CC(C)(O)c1coc(S(=O)(=O)NC(=O)Nc2c3c(cc4c2CCC4)CCC3)c1` [MCC950], which “K (binding constant)” value is on record?
Answer: 5.69 ± 0.3 10^4 M^−1

same assay, conditions: MCC950 sodium salt

Question: Which “binding to Cu^2+ (ITC, FIG. 1)” value does the source give for `CC(C)(O)c1coc(S(=O)(=O)NC(=O)Nc2c3c(cc4c2CCC4)CCC3)c1` [MCC950] here?
Answer: significant binding

test system: not listed separately; test: Isothermal titration calorimetry (ITC), Ca^2+ binding; conditions: MCC950 sodium salt

Question: With `CC(C)(O)c1coc(S(=O)(=O)NC(=O)Nc2c3c(cc4c2CCC4)CCC3)c1` [MCC950] as the molecule, how does the “binding to Ca^2+ (ITC, FIG. 1)” value read?
Answer: no binding

biological target: T1, NLRP3 inflammasome (Homo sapiens, UniProt Q96P20); test: Inhibition of IL-1β release, cell based assay using HMDM (NLRP3 inflammasome activation assay); conditions: not given
T1 construct: endogenous in cells; host or cells: HMDM (human monocyte-derived macrophages from buffy coat blood)
Method: The following assays can be used to determine inhibitory activity of test compounds on the NLRP3 inflammasome using common stimuli such as adenosine triphosphate, nigericin, LeuLeu-OMe or monosodium urate crystals (MSU).
To generate HMDM (Human Monocyte Derived Macrophages), human monocytes are isolated from buffy coat blood using Ficoll-Plaque Plus (GE Healthcare) and density centrifugation. CD14^+ cell selection is performed using MACS magnetic beads (Miltenyl Biotec). Isolated CD14^+ monocytes are differentiated in culture for 7 days with 10 ng/ml human CSF-1 (Miltenyl Biotec) in Iscove's modified Dulbecco's medium (IMDM) containing L-glutamine supplemented with 10% FBS and 1% penicillin/streptomycin (Life Technologies) as described by Croker et al 2013 Immunol Cell Biol 91:625. Stably transfected ASC-cerulean macrophages as described by Hett et al. (Nat. Chem. Biol., 9, 398-405, 2013) are cultured in DMEM supplemented with 10% FCS and 1% P/S.
HMDM are seeded at 1×10^5/ml. […]
For ELISA and cell death assays cells are seeded in 96 well plates. Supernatants are removed and analysed using ELISA kits according to the manufacturer's instructions (DuoSet® R&D Systems, ReadySetGo!® eBioscience, BD OptEIA™, or Perkin Elmer AlphaLISA®). Cell death is assessed by measurement of LDH release relative to a 100% cell lysis control using the CytoTox96® non-radioactive cytotoxicity assay (Promega).

T1 sequence (Q96P20 whole entry): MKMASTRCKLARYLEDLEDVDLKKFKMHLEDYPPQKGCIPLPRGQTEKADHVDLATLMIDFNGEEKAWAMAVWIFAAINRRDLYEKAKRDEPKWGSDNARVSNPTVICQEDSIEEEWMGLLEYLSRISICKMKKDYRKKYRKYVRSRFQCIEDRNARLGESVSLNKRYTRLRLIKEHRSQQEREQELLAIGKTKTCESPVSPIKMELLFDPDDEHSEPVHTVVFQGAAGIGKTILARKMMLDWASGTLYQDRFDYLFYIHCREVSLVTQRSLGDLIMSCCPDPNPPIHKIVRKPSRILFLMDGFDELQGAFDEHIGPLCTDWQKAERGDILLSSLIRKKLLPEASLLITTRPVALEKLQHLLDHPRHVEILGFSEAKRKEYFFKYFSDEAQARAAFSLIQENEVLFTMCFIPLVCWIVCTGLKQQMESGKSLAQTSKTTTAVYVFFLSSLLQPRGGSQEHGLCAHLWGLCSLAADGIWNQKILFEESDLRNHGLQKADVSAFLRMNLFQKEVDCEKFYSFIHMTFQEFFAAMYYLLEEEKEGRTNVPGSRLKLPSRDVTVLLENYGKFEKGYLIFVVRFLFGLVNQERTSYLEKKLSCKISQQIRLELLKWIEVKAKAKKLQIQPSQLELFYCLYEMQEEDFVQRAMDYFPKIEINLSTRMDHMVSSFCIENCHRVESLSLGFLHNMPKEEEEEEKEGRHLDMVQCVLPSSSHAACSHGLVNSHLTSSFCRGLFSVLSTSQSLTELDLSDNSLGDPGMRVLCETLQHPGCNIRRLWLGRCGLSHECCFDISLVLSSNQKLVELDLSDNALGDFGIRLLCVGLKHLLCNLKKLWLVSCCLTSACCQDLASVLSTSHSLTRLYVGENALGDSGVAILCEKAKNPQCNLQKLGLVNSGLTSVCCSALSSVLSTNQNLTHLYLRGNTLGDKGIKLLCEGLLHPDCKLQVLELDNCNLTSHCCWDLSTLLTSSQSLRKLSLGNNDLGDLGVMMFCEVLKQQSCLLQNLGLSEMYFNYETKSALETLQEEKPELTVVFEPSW

Question: For `CN1CCN(S(=O)(=O)NC(=O)Nc2c3c(cc4c2CCC4)CCC3)CC1` [Example 2, N-((1,2,3,5,6,7-hexahydro-s-indacen-4-yl)carbamoyl)-4-methylpiperazine-1-sulfonamide], which IC50 is on record?
Answer: < 1 µM

Question: Which IC50 does the source give for `CC(C)n1ccc(S(=O)(=O)NC(=O)Nn2c3ccccc3c3ccccc32)n1` [Example 4, N-((9H-carbazol-9-yl)carbamoyl)-1-isopropyl-1H-pyrazole-3-sulfonamide] here?
Answer: < 10 µM

biological target: T2, NLRP3 (Homo sapiens, UniProt Q96P20); test: THP-1 cells pyroptosis assay; assay type: cell-based; conditions: LPS 1.0 μg/ml, nigericin 5 μM, resazurin readout
T2 construct: Seed THP-1 cells (25,000 cells/well) containing 1.0 μg/ml LPS; host or cells: THP-1 cells
Excerpt: It is well established that the activation of NLRP3 leads to cell pyroptosis and this feature plays an important part in the manifestation of the clinical disease (Yan-gang Liu et al., Cell Death & Disease, 2017, 8(2), e2579; Alexander Wree et al., Hepatology, 2014, 59(3), 898-910; Alex Baldwin et al., Journal of Medicinal Chemistry, 2016, 59(5), 1691-1710; Ema Ozaki et al., Journal of Inflammation Research, 2015, 8, 15-27; Zhen Xie & Gang Zhao, Neuroimmunology Neuroinflammation, 2014, 1(2), 60-65; Mattia Cocco et al., Journal of Medicinal Chemistry, 2014, 57(24), 10366-10382; T. Satoh et al., Cell Death & Disease, 2013, 4, e644). Therefore, it is anticipated that inhibitors of NLRP3 will block pyroptosis, as well as the release of pro-inflammatory cytokines (e.g. IL-1β) from the cell.
THP-1 cells (ATCC #TIB-202) were grown in RPMI containing L-glutamine (Gibco #11835) supplemented with 1 mM sodium pyruvate (Sigma #S8636) and penicillin (100 units/ml)/streptomycin (0.1 mg/ml) (Sigma #P4333) in 10% Fetal Bovine Serum (FBS) (Sigma #F0804). The cells were routinely passaged and grown to confluency (˜10^6 cells/ml). On the day of the experiment, THP-1 cells were harvested and resuspended into RPMI medium (without FBS). The cells were then counted and viability (>90%) checked by Trypan blue (Sigma #T8154). Appropriate dilutions were made to give a concentration of 625,000 cells/ml. To this diluted cell solution was added LPS (Sigma #L4524) to give a 1 μg/ml Final Assay Concentration (FAC). 40 μl of the final preparation was aliquoted into each well of a 96-well plate. The plate thus prepared was used for compound screening.
The following method step-by-step assay was followed for compound screening. • 1. Seed THP-1 cells (25,000 cells/well) containing 1.0 μg/ml LPS in 40 μl of RPMI medium (without FBS) in 96-well, black walled, clear bottom cell culture plates coated with poly-D-lysine (VWR #734-0317) • 2. Add 5 μl compound (8 points half-log dilution, with 10 μM top dose) or vehicle (DMSO 0.1% FAC) to the appropriate wells • 3. Incubate for 3 hrs at 37° C. in 5% CO2 • 4. Add 5 μl nigericin (Sigma #N7143) (FAC 5 μM) to all wells • 5. Incubate for 1 hr at 37° C. and 5% CO2 • 6. At the end of the incubation period, spin plates at 300×g for 3 mins and remove supernatant • 7. Then add 50 μl of resazurin (Sigma #R7017) (FAC 100 μM resazurin in RPMI medium without FBS) and incubate plates for a further 1-1.5 h at 37° C. and 5% CO2 • 8. Plates were read in an Envision reader at Ex 560 nm and Em 590 nm • 9. IC50 data is fitted to a non-linear regression equation (log inhibitor vs response-variable slope 4-parameters) 96-Well Plate Map

T2 sequence (Q96P20 whole entry): as above

Question: For `O=C(Nc1c2c(cc3c1CCC3)CCC2)NS(=O)(=O)NCCOc1ccccc1Cl` [Example 5], which IC50 is on record?
Answer: < 10 µM

Question: With `O=C(Nc1c2c(cc3c1CCC3)CCC2)NS(=O)(=O)NCc1ccc(Cl)cc1F` [Example 6] as the molecule, how does the IC50 read?
Answer: < 10 µM

Question: For `CS(=O)(=O)c1cccc(CNS(=O)(=O)NC(=O)Nc2c3c(cc4c2CCC4)CCC3)c1` [Example 7], which IC50 is on record?
Answer: < 10 µM

Question: For `O=C(Nc1c2c(cc3c1CCC3)CCC2)NS(=O)(=O)NCc1c(F)cc(F)cc1F` [Example 11], which IC50 is on record?
Answer: < 10 µM

Question: For `CCN(C)C1(CNS(=O)(=O)NC(=O)Nc2c3c(cc4c2CCC4)CCC3)CCCCC1` [Example 12], which IC50 is on record?
Answer: < 10 µM

Question: With `O=C(Nc1c2c(cc3c1CCC3)CCC2)NS(=O)(=O)N1CCN(CCc2cccs2)CC1` [Example 13] as the molecule, how does the IC50 read?
Answer: < 10 µM

Question: Which IC50 does the source give for `O=C(Nc1c2c(cc3c1CCC3)CCC2)NS(=O)(=O)NCc1ccco1` [Example 14] here?
Answer: < 10 µM

Question: For `O=C(Nc1c2c(cc3c1CCC3)CCC2)NS(=O)(=O)NCCc1nccs1` [Example 15], which IC50 is on record?
Answer: < 10 µM

Question: Which IC50 does the source give for `O=C(Nc1c2c(cc3c1CCC3)CCC2)NS(=O)(=O)N(CCN1CCOCC1)Cc1ccco1` [Example 17] here?
Answer: < 50 µM

Question: With `CN(C)CCN(Cc1ccsc1)S(=O)(=O)NC(=O)Nc1c2c(cc3c1CCC3)CCC2` [Example 18] as the molecule, how does the IC50 read?
Answer: < 10 µM

Question: With `O=C(Nc1c2c(cc3c1CCC3)CCC2)NS(=O)(=O)N(Cc1ccccc1)Cc1nccs1` [Example 19] as the molecule, how does the IC50 read?
Answer: < 1 µM

Question: Which IC50 does the source give for `CN(Cc1csc(-c2ccccc2)n1)S(=O)(=O)NC(=O)Nc1c2c(cc3c1CCC3)CCC2` [Example 20] here?
Answer: < 10 µM

Question: With `O=C(Nc1c2c(cc3c1CCC3)CCC2)NS(=O)(=O)NCCc1nc(-c2cccnc2)no1` [Example 21] as the molecule, how does the IC50 read?
Answer: < 10 µM

Question: For `O=C(Nc1c2c(cc3c1CCC3)CCC2)NS(=O)(=O)NCc1cccs1` [Example 23], which IC50 is on record?
Answer: < 10 µM

Question: For `Cc1ccc(OCCNS(=O)(=O)NC(=O)Nc2c3c(cc4c2CCC4)CCC3)cc1` [Example 24], which IC50 is on record?
Answer: < 10 µM

Question: For `O=C(Nc1c2c(cc3c1CCC3)CCC2)NS(=O)(=O)NCCCc1ccccc1` [Example 25], which IC50 is on record?
Answer: < 10 µM

Question: Which IC50 does the source give for `Cc1ccccc1OCCNS(=O)(=O)NC(=O)Nc1c2c(cc3c1CCC3)CCC2` [Example 26] here?
Answer: < 10 µM

Question: For `Cc1nccn1-c1ccc(NS(=O)(=O)NC(=O)Nc2c3c(cc4c2CCC4)CCC3)cc1` [Example 27], which IC50 is on record?
Answer: < 10 µM

Question: For `O=C(Nc1c2c(cc3c1CCC3)CCC2)NS(=O)(=O)N1CCc2ccccc21` [Example 28], which IC50 is on record?
Answer: < 10 µM

Question: With `CN(Cc1ccncc1)S(=O)(=O)NC(=O)Nc1c2c(cc3c1CCC3)CCC2` [Example 29] as the molecule, how does the IC50 read?
Answer: < 10 µM

Question: For `O=C(Nc1c2c(cc3c1CCC3)CCC2)NS(=O)(=O)NCc1ccncc1` [Example 30], which IC50 is on record?
Answer: < 50 µM

Question: For `CN(c1ccccc1)S(=O)(=O)NC(=O)Nc1c2c(cc3c1CCC3)CCC2` [Example 31], which IC50 is on record?
Answer: < 10 µM

Question: For `CN(Cc1ccc(F)cc1)S(=O)(=O)NC(=O)Nc1c2c(cc3c1CCC3)CCC2` [Example 32], which IC50 is on record?
Answer: < 10 µM

Question: Which IC50 does the source give for `Cc1ccc(NS(=O)(=O)NC(=O)Nc2c3c(cc4c2CCC4)CCC3)cc1C#N` [Example 33] here?
Answer: < 10 µM

Question: For `CCn1c(=O)n(CC)c2cc(NS(=O)(=O)NC(=O)Nc3c4c(cc5c3CCC5)CCC4)c(C)cc21` [Example 34], which IC50 is on record?
Answer: < 10 µM

Question: For `COc1cc(C)c(NS(=O)(=O)NC(=O)Nc2c3c(cc4c2CCC4)CCC3)cn1` [Example 35], which IC50 is on record?
Answer: < 1 µM

Question: With `CC(=O)c1cc2c(cc1NS(=O)(=O)NC(=O)Nc1c3c(cc4c1CCC4)CCC3)OCO2` [Example 36] as the molecule, how does the IC50 read?
Answer: < 10 µM

Question: For `O=C(Nc1c2c(cc3c1CCC3)CCC2)NS(=O)(=O)Nc1cccc2c1CCC2` [Example 37], which IC50 is on record?
Answer: < 10 µM

Question: With `Cc1ccnc(C)c1NS(=O)(=O)NC(=O)Nc1c2c(cc3c1CCC3)CCC2` [Example 39] as the molecule, how does the IC50 read?
Answer: < 10 µM

Question: With `O=C(Nc1c2c(cc3c1CCC3)CCC2)NS(=O)(=O)NCCN1CCc2ccccc21` [Example 40] as the molecule, how does the IC50 read?
Answer: < 10 µM

Question: For `Cn1ncc2ccc(NS(=O)(=O)NC(=O)Nc3c4c(cc5c3CCC5)CCC4)cc21` [Example 42, 1-(1,2,3,5,6,7-Hexahydro-s-indacen-4-yl)-3-[(1-methyl-1H-indazol-6-yl)sulfamoyl]urea], which IC50 is on record?
Answer: < 1 µM

Question: For `O=C(Nc1c2c(cc3c1CCC3)CCC2)NS(=O)(=O)Nc1ccc2[nH]ccc2c1` [Example 43, 3-(1,2,3,5,6,7-Hexahydro-s-indacen-4-yl)-1-[(1H-indol-5-yl)sulfamoyl]urea], which IC50 is on record?
Answer: < 1 µM

test system: not given; test: not given; conditions: mouse; cited from earlier work

Question: For `CC(C)(O)c1coc(S(=O)(=O)NC(=O)Nc2c3c(cc4c2CCC4)CCC3)c1` [MCC950], which half-life is on record?
Answer: 3.2 h
